# pIC50: −log10 of the molar value. Several values for one entry are separate records, joined by “and”; a condition that tells them apart may be missing. Identical values can stand only once.
# Target: Epidermal growth factor receptor (Homo sapiens, UniProt P00533)
# Assay: Inhibitory activity against epidermal growth factor receptor
# Sequence of Epidermal growth factor receptor (P00533 whole entry): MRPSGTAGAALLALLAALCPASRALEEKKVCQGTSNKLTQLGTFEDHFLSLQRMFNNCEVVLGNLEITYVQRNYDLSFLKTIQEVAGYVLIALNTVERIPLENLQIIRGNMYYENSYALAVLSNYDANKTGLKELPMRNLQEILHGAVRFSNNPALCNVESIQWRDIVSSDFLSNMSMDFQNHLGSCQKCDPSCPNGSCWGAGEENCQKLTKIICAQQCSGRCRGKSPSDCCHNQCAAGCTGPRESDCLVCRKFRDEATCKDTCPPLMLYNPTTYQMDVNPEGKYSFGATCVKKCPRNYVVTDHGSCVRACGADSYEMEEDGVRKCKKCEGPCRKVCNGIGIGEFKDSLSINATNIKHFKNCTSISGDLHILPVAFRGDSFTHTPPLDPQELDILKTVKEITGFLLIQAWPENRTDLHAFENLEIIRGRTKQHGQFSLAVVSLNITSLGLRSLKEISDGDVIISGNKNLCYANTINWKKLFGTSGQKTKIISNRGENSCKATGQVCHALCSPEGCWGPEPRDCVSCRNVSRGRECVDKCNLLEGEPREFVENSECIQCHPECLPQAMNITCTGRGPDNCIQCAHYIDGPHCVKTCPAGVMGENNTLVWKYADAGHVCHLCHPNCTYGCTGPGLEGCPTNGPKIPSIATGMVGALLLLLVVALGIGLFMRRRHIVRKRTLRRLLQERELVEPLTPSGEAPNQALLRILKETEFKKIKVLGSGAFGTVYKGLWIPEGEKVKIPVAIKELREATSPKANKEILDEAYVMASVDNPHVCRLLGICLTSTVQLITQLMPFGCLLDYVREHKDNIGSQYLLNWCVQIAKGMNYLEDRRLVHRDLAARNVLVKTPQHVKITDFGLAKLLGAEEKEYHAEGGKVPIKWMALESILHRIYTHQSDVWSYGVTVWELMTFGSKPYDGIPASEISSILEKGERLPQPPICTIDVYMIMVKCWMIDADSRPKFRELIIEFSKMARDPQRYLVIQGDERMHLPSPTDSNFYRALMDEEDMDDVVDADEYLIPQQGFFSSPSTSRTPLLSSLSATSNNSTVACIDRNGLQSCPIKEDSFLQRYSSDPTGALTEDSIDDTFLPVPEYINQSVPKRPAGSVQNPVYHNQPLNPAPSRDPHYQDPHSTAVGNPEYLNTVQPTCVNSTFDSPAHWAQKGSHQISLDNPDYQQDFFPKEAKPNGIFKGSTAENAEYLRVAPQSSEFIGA
row,Compound,pIC50
1,CC(C)(CO)NCc1ccc(-c2cc3ncnc(Nc4ccc5[nH]ccc5c4)c3s2)cc1,9.00 and 8.10
2,Cc1c[nH]c2ccc(Nc3ncnc4cc(-c5ccccc5)sc34)cc12,8.30
3,NC(=O)C1CCN(Cc2ccc(-c3cc4ncnc(Nc5ccc6[nH]ccc6c5)c4s3)cc2)CC1,8.15
4,Cc1cc2cc(Nc3ccnc4cc(-c5ccc(CN6CCOCC6)cc5)sc34)ccc2[nH]1,5.90
5,c1cc(Nc2ccc3[nH]ccc3c2)c2sc(-c3ccc(CN4CCOCC4)cc3)cc2n1,7.52
6,c1ccc(CCCN(c2cc3ncnc(Nc4ccc5[nH]ccc5c4)c3s2)n2ccnc2)cc1,8.30 and 9.00
7,c1nc(Nc2ccc3[nH]ccc3c2)c2sccc2n1,6.22
8,Cc1cc2cc(Nc3ccnc4cc(-c5ccc(CNCCOCCO)cc5)sc34)ccc2[nH]1,6.18
9,OCCCNCc1ccc(-c2cc3nccc(Nc4ccc5[nH]ccc5c4)c3s2)cc1,8.05
10,NCc1ccc(-c2cc3ncnc(Nc4ccc5[nH]ccc5c4)c3s2)cc1,8.40
11,c1ccc(-c2cc3ncnc(Nc4ccc5[nH]ncc5c4)c3s2)cc1,5.80
12,Cc1cc2cc(Nc3ccnc4cc(-c5ccc(CNCCCO)cc5)sc34)ccc2[nH]1,6.30
13,Cc1cc2cc(Nc3ccnc4cc(-c5ccc(CNCCO)cc5)sc34)ccc2[nH]1,6.00
14,Cc1cc2cc(Nc3ncnc4cc(-c5ccccc5)sc34)ccc2[nH]1,7.00
15,NC(=O)c1ccc(Nc2ncnc3cc(-c4ccccc4)sc23)cc1,< 6.00
16,CC(=O)NCCNCc1ccc(-c2cc3ncnc(Nc4ccc5[nH]ccc5c4)c3s2)cc1,8.30
17,Cc1cc2cc(Nc3ccnc4cc(-c5ccc(CN(C)CCO)cc5)sc34)ccc2[nH]1,6.85

# Results, then the molecule that gave them:
row,pIC50,Compound
1,8.70,OCCNCc1ccc(-c2cc3nccc(Nc4ccc5[nH]ccc5c4)c3s2)cc1
2,9.00,c1csc(-c2cc3nccc(Nc4ccc5[nH]ccc5c4)c3s2)c1
3,9.00,OCc1ccc(-c2cc3ncnc(Nc4ccc5[nH]ccc5c4)c3s2)cc1
4,8.70,CC(=O)NCCNCc1ccc(-c2cc3nccc(Nc4ccc5[nH]ccc5c4)c3s2)cc1
5,9.00,NC(=O)C1CCN(Cc2ccc(-c3cc4nccc(Nc5ccc6[nH]ccc6c5)c4s3)cc2)CC1
6,8.52,CN(CCO)Cc1ccc(-c2cc3nccc(Nc4ccc5[nH]ccc5c4)c3s2)cc1
7,9.00,c1ccc(NCCN(c2cc3ncnc(Nc4ccc5[nH]ccc5c4)c3s2)n2cccc2)cc1
8,8.52,c1cc(Nc2ccc3[nH]ccc3c2)c2sc(-c3ccc(CNCCN4CCNCC4)cc3)cc2n1

# From ChEMBL document CHEMBL1146693, “Design and SAR of thienopyrimidine and thienopyridine inhibitors of VEGFR-2 kinase activity” (Bioorg Med Chem Lett, 2004)
